Tested on: RSV Long strain
Assay: Viral cytopathic effect (CPE) assay, anti-RSV activity
Type: cell-based, Respiratory Syncytial Virus
Conditions: human respiratory syncytial virus, 144 h, RSV Long strain (ATCC); cell viability after 6 days, Cell Counting kit-8
How it was run: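 Cells (6×10^3/well, DMEM with 10% FBS) were infected next day with RSV Long strain, at a dose giving approximately 80–90% CPE, alongside serial half-log compound dilutions. Viability was read after 6 days by CCK-8 absorbance at 450 nm (reference 630 nm), and EC50 was derived from it.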

SMILES	EC50
Cc1ccc2nc(N3CCS(=O)(=O)c4ccccc4C3)cc(NCCCCCCCCCO)c2c1 [Example 12-6, 9-{[2-(1,1-Dioxido-2,3-dihydro-1,4-benzothiazepin-4(5H)-yl)-6-methylquinolin-4-yl]amino}nonan-1-ol]	9.21 µM
Cc1cccc2c(NCCCCCCCCN)cc(N3CCS(=O)(=O)c4ccccc4C3)nc12 [Example 12-7, N-[2-(1,1-Dioxido-2,3-dihydro-1,4-benzothiazepin-4(5H)-yl)-8-methylquinolin-4-yl]octane-1,8-diamine]	0.226 µM
Cc1ccc2nc(N3CCS(=O)(=O)c4ccccc4C3)cc(N[C@@H](C)C(=O)O)c2c1 [Example 14-1, N-[2-(1,1-Dioxido-2,3-dihydro-1,4-benzothiazepin-4(5H)-yl)-6-methylquinolin-4-yl]-L-alanine]	2.19 µM
Cc1ccc2nc(N3CCS(=O)(=O)c4ccccc4C3)cc(NCCC(=O)O)c2c1 [Example 14-2, N-[2-(1,1-Dioxido-2,3-dihydro-1,4-benzothiazepin-4(5H)-yl)-6-methylquinolin-4-1]-beta-alanine]	8.79 µM
Cc1ccc2nc(N3CCS(=O)(=O)c4ccccc4C3)cc(Nc3cccc(N)c3)c2c1 [Example 15-1, N-[2-(1,1-Dioxido-2,3-dihydro-1,4-benzothiazepin-4(5H)-yl)-6-methylquinolin-4-yl]benzene-1,3-diamine]	7.89 µM
Cc1ccc2nc(N3CCS(=O)(=O)c4ccccc4C3)cc(Nc3ccc(N)cc3)c2c1 [Example 15-2, N-[2-(1,1-Dioxido-2,3-dihydro-1,4-benzothiazepin-4(5H)-yl)-6-methylquinolin-4-yl]benzene-1,4-diamine]	7.99 µM
Cc1ccc2nc(N3CCS(=O)(=O)c4ccccc4C3)cc(N3CC[C@H](O)C3)c2c1 [Example 15-3, (3S)-1-[2-(1,1-Dioxido-2,3-dihydro-1,4-benzothiazepin-4(5H)-yl)-6-methylquinolin-4-yl]pyrrolidin-3-ol]	2.7 µM
Cc1ccc2nc(N3CCS(=O)(=O)c4ccccc4C3)cc(N3CC[C@@H](O)C3)c2c1 [Example 15-4, (3R)-1-[2-(1,1-Dioxido-2,3-dihydro-1,4-benzothiazepin-4(5H)-yl)-6-methylquinolin-4-yl]pyrrolidin-3-ol]	0.257 µM
Cc1ccc2nc(N3CCS(=O)(=O)c4ccccc4C3)cc(N3CCCC(N)C3)c2c1 (centres unmarked) [Example 16-1, 1-[2-(1,1-Dioxido-2,3-dihydro-1,4-benzothiazepin-4(5H)-yl)-6-methylquinolin-4-yl]piperidin-3-amine]	2.57 µM
Cc1ccc2nc(N3CCS(=O)(=O)c4ccccc4C3)cc(N(C)C)c2c1 [Example 16-2, 2-(1,1-Dioxido-2,3-dihydro-1,4-benzothiazepin-4(5H)-yl)-N,N,6-trimethylquinolin-4-amine]	9.64 µM

The remaining lines, values ahead:

EC50	SMILES
5.54 µM	NCCCNc1cc(N2CCS(=O)(=O)c3ccccc3C2)nc2ccc(OC(F)(F)F)cc12 [Example 17-1, N-[2-(1,1-Dioxido-2,3-dihydro-1,4-benzothiazepin-4(5H)-yl)-6-(trifluoromethoxy)quinolin-4-yl]propane-1,3-diamine]
0.616 µM	NCCCNc1cc(N2CCS(=O)(=O)c3ccccc3C2)nc2ccc(C(F)(F)F)cc12 [Example 17-2, N-[2-(1,1-Dioxido-2,3-dihydro-1,4-benzothiazepin-4(5H)-yl)-6-(trifluoromethyl)quinolin-4-yl]propane-1,3-diamine]
2.17 µM	NCCCNc1cc(N2CCS(=O)(=O)c3ccccc3C2)nc2ccc(OC(F)F)cc12 [Example 17-3, N-[6-(Difluoromethoxy)-2-(1,1-dioxido-2,3-dihydro-1,4-benzothiazepin-4(5H)-yl)quinolin-4-yl]propane-1,3-diamine]
0.071 µM	COc1ccc2nc(N3CCS(=O)(=O)c4ccccc4C3)cc(NCCCN)c2c1 [Example 17-4, N-[2-(1,1-Dioxido-2,3-dihydro-1,4-benzothiazepin-4(5H)-yl)-6-methoxyquinolin-4-yl]propane-1,3-diamine]

— US8871756B2 (Hoffmann-La Roche Inc., priority 2011, dated 2014)
